Source: patent publication US9580390B2, “Indazole compounds as kinase inhibitors and method of treating cancer with same” (University Health Network, priority 2011, dated 2017)
Like-named read-outs stand apart in the source and are kept apart here.

Experiments:
[1] = test system: colon cancer cells (HCT116); experiment: Cancer cell line growth inhibition (SRB assay); format: cell-based; conditions: Homo sapiens, HCT-116, read-out: Cancer Cell Line GI50 Range HCT116
[2] = test system: ovarian cancer cells (PA-1); experiment: Cancer cell line growth inhibition (SRB assay); format: cell-based; conditions: read-out: Cancer Cell Line GI50 Range PA-1
TICs (Colon 12) = experiment: Colon tumor-initiating cell growth inhibition (Alamar Blue); format: cell-based; conditions: 216 h, 9 days, read-out: Tumor Initiating Cell GI50 Range Colon 12
TICs (Ovarian 2393A) = experiment: Ovarian tumor-initiating cell growth inhibition (Alamar Blue); format: cell-based; conditions: 144 h, 6 days, read-out: Tumor Initiating Cell GI50 Range Ovarain 2393A
human PLK4 = molecular target: T1, human PLK4 (Homo sapiens, UniProt O00444); experiment: PLK4 inhibition assay (indirect ELISA); format: biochemical; conditions: 15 μM ATP
T1 construct: amino terminal GST fusion of residues 1-391 of human PLK4; made in house; host or cells: E. coli
T1 sequence (O00444 1-391): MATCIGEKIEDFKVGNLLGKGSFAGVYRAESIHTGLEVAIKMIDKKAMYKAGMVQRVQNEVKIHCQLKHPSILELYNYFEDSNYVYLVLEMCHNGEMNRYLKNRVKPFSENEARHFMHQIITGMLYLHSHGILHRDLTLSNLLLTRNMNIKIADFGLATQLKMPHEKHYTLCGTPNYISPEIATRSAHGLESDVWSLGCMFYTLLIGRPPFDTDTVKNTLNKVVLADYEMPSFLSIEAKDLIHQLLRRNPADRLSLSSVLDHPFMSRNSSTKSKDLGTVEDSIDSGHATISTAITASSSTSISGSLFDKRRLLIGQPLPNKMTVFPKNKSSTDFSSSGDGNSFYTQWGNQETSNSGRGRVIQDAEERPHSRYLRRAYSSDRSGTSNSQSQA
In short: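 Dephosphorylated GST-PLK4 (residues 1-391, E. coli; 4 nM) was preincubated 15 min with compound, then reacted 30 min with 15 μM ATP in HEPES pH 7.4, MgCl2, Brij 35 on MBP-coated plates. Phospho-MBP was detected by antibody/HRP ELISA at 450 nm; IC50 from 10-point titration by 4-parameter logistic fit, or single 10 μM % inhibition.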

human TTK = molecular target: T2, human TTK (Homo sapiens, UniProt P33981); experiment: TTK inhibition assay (indirect ELISA); format: biochemical; conditions: read-out: TTK IC50 Range
T2 construct: amino terminal GST fusion of full length human TTK; purchased Invitrogen
T2 sequence (P33981 1-857): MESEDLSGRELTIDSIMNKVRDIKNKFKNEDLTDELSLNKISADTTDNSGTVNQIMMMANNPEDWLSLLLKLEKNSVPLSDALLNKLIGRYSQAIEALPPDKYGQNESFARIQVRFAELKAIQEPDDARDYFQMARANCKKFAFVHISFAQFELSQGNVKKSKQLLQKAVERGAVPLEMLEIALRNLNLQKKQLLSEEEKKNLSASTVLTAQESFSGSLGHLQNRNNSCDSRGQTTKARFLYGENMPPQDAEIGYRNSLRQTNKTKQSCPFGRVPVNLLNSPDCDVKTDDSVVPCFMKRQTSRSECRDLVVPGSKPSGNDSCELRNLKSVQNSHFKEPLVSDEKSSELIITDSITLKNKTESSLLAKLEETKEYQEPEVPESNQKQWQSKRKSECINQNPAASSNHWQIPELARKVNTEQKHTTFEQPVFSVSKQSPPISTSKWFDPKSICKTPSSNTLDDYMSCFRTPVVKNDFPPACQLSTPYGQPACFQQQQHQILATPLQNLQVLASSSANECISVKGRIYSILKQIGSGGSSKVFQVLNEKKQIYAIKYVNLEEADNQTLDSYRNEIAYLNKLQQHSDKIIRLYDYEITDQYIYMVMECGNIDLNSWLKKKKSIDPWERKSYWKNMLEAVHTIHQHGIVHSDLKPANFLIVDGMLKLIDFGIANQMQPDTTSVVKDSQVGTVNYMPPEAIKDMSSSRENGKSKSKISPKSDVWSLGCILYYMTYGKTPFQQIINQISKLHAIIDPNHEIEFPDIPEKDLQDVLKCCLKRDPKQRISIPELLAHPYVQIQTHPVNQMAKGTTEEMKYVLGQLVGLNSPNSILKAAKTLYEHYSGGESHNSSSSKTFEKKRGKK

Breast cancer cells = experiment: Cancer cell line growth inhibition (SRB assay); format: cell-based; conditions: Homo sapiens; MDA-MB-468; read-out: Cancer Cell Line GI50 Range MDA-MB-468

GI50 ([1]; HCT116 colon cancer cells, SRB assay) [nM] | GI50 ([2]; PA-1 ovarian cancer cells, SRB assay) [nM] | GI50 (TICs (Colon 12); colon TICs, Alamar Blue) [nM] | GI50 (TICs (Ovarian 2393A); ovarian TICs, Alamar Blue) [nM] | SMILES | IC50 (human PLK4) [nM] | IC50 (human TTK) [nM] | GI50 (Breast cancer cells) [nM] | GI50 [1] [nM] | GI50 ([2]; Homo sapiens, PA-1) [nM] | GI50 (TICs (Colon 12); Colon 12 TICs) [nM] | GI50 (TICs (Ovarian 2393A); Ovarian 2393A TICs) [nM]
< 100 | < 100 | 100 to 500 | 100 to 500 | CN1CCC(Oc2ccc(-c3n[nH]c4ccc(C(=O)N[C@H](CCO)c5ccccc5)cc34)cc2Cl)CC1 [Example A202, (R)-3-(3-chloro-4-((1-methylpiperidin-4-yl)oxy)phenyl)-N-(3-hydroxy-1-phenylpropyl)-1H-indazole-5-carboxamide] | < 50 | – | – | – | – | – | –
– | – | – | – | C[C@@H](O)CN1CCC(Oc2ccc(-c3n[nH]c4ccc(C(=O)N[C@@H](c5ccsc5)C5CCCC5)cc34)cc2)CC1 [Example A222, N-((R)-cyclopentyl(thiophen-3-yl)methyl)-3-(4-((1-((R)-2-hydroxypropyl)piperidin-4-yl)oxy)phenyl)-1H-indazole-5-carboxamide] | < 50 | < 100 | 100 to 500 | < 100 | < 100 | < 100 | 100 to 500
– | – | – | – | CN1C2CCC1CC(Oc1ccc(-c3n[nH]c4ccc(C(=O)N[C@@H](c5ccccc5Cl)C5CC5)cc34)cc1)C2 (stereo partly drawn) [Example A234, N-((R)-(2-chlorophenyl)(cyclopropyl)methyl)-3-(4-(((1R,3R,5S)-8-methyl-8-azabicyclo[3.2.1]octan-3-yl)oxy)phenyl)-1H-indazole-5-carboxamide] | < 50 | < 100 | 100 to 500 | < 100 | < 100 | 100 to 500 | 100 to 500
– | – | – | – | CN1C2CCC1CC(Oc1ccc(-c3n[nH]c4ccc(C(=O)N[C@H](c5ccccc5Cl)C5CC5)cc34)cc1)C2 (stereo partly drawn) [Example A235, N-((S)-(2-chlorophenyl)(cyclopropyl)methyl)-3-(4-(((1R,3R,5S)-8-methyl-8-azabicyclo[3.2.1]octan-3-yl)oxy)phenyl)-1H-indazole-5-carboxamide] | < 50 | < 100 | < 100 | < 100 | < 100 | < 100 | < 100
– | – | – | – | CN1C2CCC1CC(Oc1ccc(-c3n[nH]c4ccc(C(=O)N[C@@H](c5ccsc5)C5CCCC5)cc34)cc1)C2 (stereo partly drawn) [Example A247, N-((R)-cyclopentyl(thiophen-3-yl)methyl)-3-(4-(((1R,3R,5S)-8-methyl-8-azabicyclo[3.2.1]octan-3-yl)oxy)phenyl)-1H-indazole-5-carboxamide] | < 50 | < 100 | 100 to 500 | 100 to 500 | 100 to 500 | 100 to 500 | 100 to 500
– | – | – | – | CC(C)[C@@H](NC(=O)c1ccc2[nH]nc(-c3ccc(OC4CCN(C)CC4)cc3)c2c1)c1ccccc1Cl [Example A274, (R)-N-(1-(2-chlorophenyl)-2-methylpropyl)-3-(4-((1-methylpiperidin-4-yl)oxy)phenyl)-1H-indazole-5-carboxamide] | < 50 | < 100 | > 500 | 100 to 500 | 100 to 500 | 100 to 500 | 100 to 500
– | – | – | – | CC(C)[C@H](NC(=O)c1ccc2[nH]nc(-c3ccc(OC4CC5CCC(C4)N5C)cc3)c2c1)c1ccccc1Cl (stereo partly drawn) [Example A287, N-((S)-1-(2-chlorophenyl)-2-methylpropyl)-3-(4-(((1R,3R,5S)-8-methyl-8-azabicyclo[3.2.1]octan-3-yl)oxy)phenyl)-1H-indazole-5-carboxamide] | < 50 | < 100 | < 100 | < 100 | < 100 | 100 to 500 | 100 to 500
– | – | – | – | CC(C)[C@@H](NC(=O)c1ccc2[nH]nc(-c3ccc(OC4CC5CCC(C4)N5C)cc3)c2c1)c1ccccc1Cl (stereo partly drawn) [Example A288, N-((R)-1-(2-chlorophenyl)-2-methylpropyl)-3-(4-(((1R,3R,5S)-8-methyl-8-azabicyclo[3.2.1]octan-3-yl)oxy)phenyl)-1H-indazole-5-carboxamide] | < 50 | < 100 | 100 to 500 | < 100 | 100 to 500 | 100 to 500 | 100 to 500
– | – | – | – | CC(C)CC(NC(=O)c1ccc2[nH]nc(-c3ccc(N4CCN(C5COC5)CC4)cc3)c2c1)c1ccccc1Cl (stereo not shown) [Example A298, N-(1-(2-chlorophenyl)-3-methylbutyl)-3-(4-(4-(oxetan-3-yl)piperazin-1-yl)phenyl)-1H-indazole-5-carboxamide] | < 50 | < 100 | < 100 | < 100 | < 100 | < 100 | < 100
– | – | – | – | CC(C)C[C@H](NC(=O)c1ccc2[nH]nc(-c3ccc(N4CCN(C5COC5)CC4)cc3)c2c1)c1ccccc1Cl [Example A299, (S)-N-(1-(2-chlorophenyl)-3-methylbutyl)-3-(4-(4-(oxetan-3-yl)piperazin-1-yl)phenyl)-1H-indazole-5-carboxamide] | < 50 | < 100 | < 100 | < 100 | < 100 | < 100 | < 100
– | – | – | – | CC(C)[C@H](NC(=O)c1ccc2[nH]nc(-c3ccc(OC4CC5CCC(C4)N5C=O)cc3)c2c1)c1ccccc1Cl (stereo partly shown) [Example A333] | < 50 | < 100 | – | < 100 | < 100 | < 100 | < 100
– | – | – | – | CC(C)[C@H](NC(=O)c1ccc2[nH]nc(-c3ccc(OC4CCN(C=O)CC4)cc3)c2c1)c1ccccc1Cl [Example A334, (S)-N-(1-(2-chlorophenyl)-2-methylpropyl)-3-(4-((1-formylpiperidin-4-yl)oxy)phenyl)-1H-indazole-5-carboxamide] | < 50 | < 100 | – | < 100 | < 100 | < 100 | < 100
– | – | – | – | CC(C)[C@H](NC(=O)c1ccc2[nH]nc(-c3ccc(OC4CC5CCC(C4)N5CCO)cc3)c2c1)c1ccccc1Cl (stereo partly drawn) [Example A337, N-((S)-1-(2-chlorophenyl)-2-methylpropyl)-3-(4-(((1R,3R,5S)-8-(2-hydroxyethyl)-8-azabicyclo[3.2.1]octan-3-yl)oxy)phenyl)-1H-indazole-5-carboxamide] | < 50 | < 100 | < 100 | < 100 | < 100 | < 100 | < 100
– | – | – | – | CC(C)C[C@H](NC(=O)c1ccc2[nH]nc(-c3ccc(OC4CC5CCC(C4)N5C=O)cc3)c2c1)c1ccccn1 (stereo partly drawn) [Example A358, 3-(4-(((1R,3R,5S)-8-formyl-8-azabicyclo[3.2.1]octan-3-yl)oxy)phenyl)-N-((S)-3-methyl-1-(pyridin-2-yl)butyl)-1H-indazole-5-carboxamide] | < 50 | < 100 | < 100 | < 100 | < 100 | < 100 | < 100
